Assay results taken from article PMC8041370, “Limonoids from Guarea guidonia and Cedrela odorata: Heat Shock Protein 90 (Hsp90) Modulator Properties of Chisomicine D” (Journal of Natural Products, 2021).
Where two headings read alike, the source gives them in different places. Blank lines part the entries; values can stand above or below the compound they belong to.

How the values were obtained:
[1] = tested on: U937 cells; assay: Cell cycle by propidium iodide flow cytometry and p-CDC2/CDC2 Western blot; type: cell-based, human
Procedure: (§1) U937 cells were preliminarily synchronized by serum starvation and then seeded in six-well plates at a cell density of 8 × 10^5 cell/well. After 24 h, they were incubated for 48 h in the presence of compound 1 at IC50 concentration (20 μm), with phenethyl isothiocyanate and DMSO as a positive and negative control, respectively. Apoptosis was evaluated by an annexin V–FITC/PI apoptosis detection kit (Dojindo EU GmbH, Munich, Germany), and the cell cycle was evaluated by propidium iodide (PI) staining of permeabilized cells, according to the available protocol, and flow cytometry (BD FACSCalibur flow cytometer, Becton Dickinson, San Jose, CA, USA). Data from 5000 events per sample were collected. The percentages of the elements in the hypodiploid region and in G1, S, and G2 phases of the cell cycle and apoptosis data were calculated using FlowJo (BD Biosciences). Experiments were performed in technical triplicates and repeated two times with similar results.
(§2) Whole cell lysates (U937) for immunoblot analysis were lysed with RIPA buffer (20 mM Tris-HCl pH 7.5, 150 mM NaCl, 1 mM EDTA, 1% NP-40, 1% sodium deoxycholate, 2.5 mM sodium pyrophosphate) supplemented with protease and phosphatase inhibitors. Protein concentration was determined by a Bradford solution for protein determination (Applichem) using BSA as a standard. Proteins were fractionated on SDS-PAGE, transferred into nitrocellulose membranes, and immunoblotted with the appropriate primary antibody. Signals were visualized with the appropriate horseradish peroxidase-conjugated secondary antibody and enhanced chemiluminescence (Amersham Biosciences-GE Healthcare, NY, USA). Densitometric analyses were carried out using the ImageJ software. Experiments were performed in duplicate.

[2] = tested on: HeLa (epithelial carcinoma) cells; assay: MTT cell viability, HeLa; type: cell-based; settings: Homo sapiens, 48 h
Procedure: (§3) HeLa (cervical carcinoma) and U937 (pro-monocytic, human myeloid leukemia) cell lines were purchased from the American Type Cell Culture (ATCC) (Rockville, MD, USA). HeLa cells were maintained in DMEM, and U937 were cultured in RPMI 1640, both supplemented with 10% FBS, 100 mg/L streptomycin, and penicillin 100 IU/mL at 37 °C in a humidified atmosphere of 5% CO2. To ensure logarithmic growth, cells were subcultured every 2 days. Stock solutions of compound in DMSO were stored in the dark at 4 °C. Appropriate dilutions were prepared in culture medium immediately prior to use. […] PBMCs were isolated from buffy coats of healthy donors (kindly provided by the Blood Center of the Hospital of Battipaglia, Italy) by using standard Ficoll-Hypaque gradients. PBMCs were incubated with DMSO or compound 1 at 30 μM for 48 h. […] The number of viable cells was quantified by the MTT [3-(4,5-dimethylthiazol-2-yl)-2,5-diphenyl tetrazolium bromide] assay. Absorption at 550 nm for each well was assessed using Multiskan GO (Thermo Scientific). Half-maximal inhibitory concentration (IC50) values were calculated using GraphPad Prism 8. Experiments were performed in technical triplicates and repeated two times with similar results.

[3] = tested on: Hsp90α client protein levels in U937 cells; assay: Western blot of Hsp90α, Hsp70 and Hsp90 client protein levels; type: cell-based, human
Procedure: as §2
Proteins extracted from U937 cells following a 24 h treatment with 20 μM solution of compound 1 and from untreated cells (control) were fractionated on SDS-PAGE. The bands corresponding to the intact and truncated forms of Hsp90 (apparent molecular weight 90 and 70 kDa, respectively) were excised and subjected to a classical in-gel tryptic digestion. The resulting peptide mixtures were analyzed in positive ion full scan and dependent scan MS mode on a Q-Exactive Orbitrap mass spectrometer coupled with a nanoUltimate UHPLC system (Thermo Fisher Scientific, Waltham, MA, USA). Peptide separation was performed on a capillary EASY-Spray PepMap column (0.075 mm × 50 mm, 2 μm, Thermo Fisher Scientific) using aqueous 0.1% formic acid (A) and CH3CN containing 0.1% formic acid (B) as mobile phases and a linear gradient from 3% to 40% of B in 45 min and a 300 nL/min flow rate. Mass spectra were acquired over an m/z range from 400 to 1300. Dependent scan data were preliminarily analyzed to confirm the presence of Hsp90 in the digested gel-bands. To this aim, MS and MS/MS data underwent Mascot software (v2.5, Matrix Science, Boston, MA, USA) analysis using the nonredundant data bank UniprotKB/Swiss-Prot (release 2020_03). Parameter sets were as follows: trypsin cleavage; carbamidomethylation of cysteine as a fixed modification and methionine oxidation as a variable modification; a maximum of two missed cleavages; false discovery rate (FDR), calculated by searching the decoy database, 0.05. The data analysis of protein was carried out using the gene ontology tool in the UniProt Knowledgebase (UniProtKB; http://www.uniprot.org). Based on the achieved results, full mass chromatograms were analyzed using Xcalibur software by generating extracted ion spectra specific for the Hsp90 tryptic peptides completely covering the protein amino acidic sequence.

[4] = target: T1, Hsp90α (Homo sapiens, UniProt P07900); assay: Surface plasmon resonance binding to immobilized Hsp90α; design: purchased Stress-gen Bioreagents Corporation, Victoria, Canada SPP-776; settings: SPR, 25 °C, mean ± standard deviation (n = 3)
Procedure: 1 and 4 μM), and, for each sample, a complete binding study was carried out in triplicate. The experiments were performed at 25 °C, using a flow rate of 50 μL/min, with 60 s monitoring of association and 300 s monitoring of dissociation. Changes in mass, due to the binding response, were recorded as resonance units (RU). To obtain the dissociation constant (KD), these responses were fit to a 1:1 Langmuir binding model by nonlinear regression, using the BiaEvaluation sofware program (GE Healthcare). Simple interactions were suitably fitted to a single-site bimolecular interaction model (A + B = AB), yielding a single KD.

[5] = tested on: PBMC (nontumor human peripheral blood mononuclear cell line); assay: Cytotoxicity on PBMC; type: cell-based; settings: 30 μM, 48 h
Procedure: HeLa (cervical carcinoma) and U937 (pro-monocytic, human myeloid leukemia) cell lines were purchased from the American Type Cell Culture (ATCC) (Rockville, MD, USA). HeLa cells were maintained in DMEM, and U937 were cultured in RPMI 1640, both supplemented with 10% FBS, 100 mg/L streptomycin, and penicillin 100 IU/mL at 37 °C in a humidified atmosphere of 5% CO2. To ensure logarithmic growth, cells were subcultured every 2 days. Stock solutions of compound in DMSO were stored in the dark at 4 °C. Appropriate dilutions were prepared in culture medium immediately prior to use. […] PBMCs were isolated from buffy coats of healthy donors (kindly provided by the Blood Center of the Hospital of Battipaglia, Italy) by using standard Ficoll-Hypaque gradients. PBMCs were incubated with DMSO or compound 1 at 30 μM for 48 h.

[6] = target: T1, Hsp90α; assay: Hsp90 ATPase activity; type: biochemical; settings: 10 or 20 μM; data not shown
[7] = tested on: U937 (human myeloid leukemia) cell line; assay: MTT cell viability, U937; type: cell-based; settings: U-937, 48 h
Procedure: as §3

[8] = tested on: U937 cells; assay: Apoptosis by annexin V-FITC/PI flow cytometry and caspase 3 Western blot; type: cell-based, human; settings: U937, 20 μM
Procedure: as §1
Whole cell lysates (U937) for immunoblot analysis were lysed with RIPA buffer (20 mM Tris-HCl pH 7.5, 150 mM NaCl, 1 mM EDTA, 1% NP-40, 1% sodium deoxycholate, 2.5 mM sodium pyrophosphate) supplemented with protease and phosphatase inhibitors. Protein concentration was determined by a Bradford solution for protein determination (Applichem) using BSA as a standard. […]

[9] = U937, 20 μM, 48 h, PI staining, Figure 2B

SMILES: CC(=O)O[C@H]1C[C@@]2(C)[C@H](C3=CC(=O)O[C@@H]3O)OC(=O)[C@H]3O[C@]32[C@@]2(C)[C@H]1[C@@]1(C)C=CC(=O)OC(C)(C)[C@@H]1C[C@H]2OC(C)=O [Compound 5, 7-deoxo-7α,11β-diacetoxykihadanin A]
- KD [4]: no binding

SMILES: CC(=O)O[C@H]1C[C@@]2(C)[C@H](C3=CC(=O)O[C@@H]3O)OC(=O)[C@H]3O[C@]32[C@@]2(C)[C@H]1[C@@]1(C)[C@@H](OC(C)=O)CC(=O)OC(C)(C)[C@@H]1C[C@H]2OC(C)=O [Compound 6, 1,2-dihydro-7-deoxo-1α,7α,11β-triacetoxykihadanin A]
- KD [4]: no binding

SMILES: CC(=O)O[C@H]1C[C@@]2(C)[C@H](c3ccoc3)OC(=O)[C@H]3O[C@]32[C@]2(C)[C@H](O)C[C@H]3C(C)(C)O[C@H]4CC(=O)OC[C@]43[C@@H]12 [Compound 8, 11β-acetoxylimonol]
- Kd [4]: 24.8 ± 2.3 nM

SMILES: CC(=O)O[C@H]1C[C@@]2(C)[C@H](C3=C[C@@H](O)OC3=O)OC(=O)[C@H]3O[C@]32[C@@]2(C)[C@H]1[C@@]13COC(=O)C[C@@H]1OC(C)(C)[C@@H]3C[C@H]2OC(C)=O [Compound 9, 11β-acetoxycedrelosin B]
- KD [4]: low affinity
- Kd [4]: 183 ± 18.9 nM

SMILES: CC(=O)O[C@H]1C[C@@]2(C)[C@H](c3ccoc3)OC(=O)[C@H]3O[C@]32[C@@]2(C)[C@H]1[C@@]1(C)[C@@H](OC(C)=O)CC(=O)OC(C)(C)[C@@H]1C[C@H]2OC(C)=O [Compound 10, 7α,11β-diacetoxydihydronomilin]
- KD [4]: no binding

SMILES: CC(=O)O[C@H]1C[C@@]2(C)[C@H](c3ccoc3)OC(=O)[C@H]3O[C@]32[C@@]2(C)[C@H]1[C@@]1(C)C=CC(=O)OC(C)(C)[C@@H]1C[C@H]2OC(C)=O [Compound 11, 11β-acetoxybacunyl acetate]
- Kd [4]: 25.3 ± 1.8 nM

Now from value to compound, other results behind:

- IC50 [2]: > 50000 nM
- Kd [4]: 18.2 ± 1.9 nM
- inhibition of Hsp90 ATPase activity [6]: did not affect its enzymatic efficiency
- IC50 ([7]; read-out: IC50 growth inhibition U937): 20000 ± 3000 nM
SMILES: C/C=C(\C)C(=O)O[C@@H]1/C=C\[C@]2(O)C3=CC(=O)O[C@@H](c4ccoc4)[C@]3(C)CC[C@]2(O)[C@]2(C)C(=O)C[C@@]1(C)[C@@H]2CC(=O)OC (relative stereo) [Compound 1, 8-hydro-(8S*,9S*)-dihydroxy-14,15-en-chisomicine A]
- G1 phase [1, 9]: 53,1
- G2 phase [1, 9]: 16,7
- S phase [1, 9]: 12,3
- effect on cell cycle ([1]; U937, 48 h (1 at 20 μM)): G2 phase cell cycle arrest
- p-CDC2/CDC2 ratio ([1]; U937, Western blot, 10 and 20 μM): increase
- Hsp70 cellular levels ([3]; U937, 30 μM, 48 h): affected
- ERK concentration ([3]; U937, 10, 20 and 30 μM, 48 h): no significant variation
- Hsp90 amount ([3]; U937, 10, 20 and 30 μM, 48 h): down-regulated in a dose-dependent manner
- p-ERK2 level ([3]; U937, 10, 20 and 30 μM, 48 h): strong depletion
- Hsp90 cleavage ([3]; U937, 20 and 30 μM, 48 h): Hsp90 cleaved form, with an apparent molecular weight of 70 kDa, was observed
- level of both isoforms of JNK ([3]; U937, 48 h, regardless of phosphorylation): significantly reduced
- cytotoxic activity on PBMC [5]: did not show any cytotoxic activity
- increase of late apoptosis compared to the negative control ([8]; 48 h, annexin V/FITC): about 15%
- pro-caspase 3 cleavage ([8]; Western blot): induced the cleavage of pro-caspase 3

- KD [4]: no binding
SMILES: C/C=C(\C)C(=O)O[C@@H]1/C=C\C2=C3CC(=O)O[C@@H](c4ccoc4)[C@]3(C)CC[C@]2(O)[C@]2(C)C(=O)C[C@@]1(C)[C@@H]2CC(=O)OC (relative stereo) [Compound 3, (9R*)-hydroxychisomicine A]

- KD [4]: no binding
SMILES: C=C(C)C(=O)O[C@@H]1/C=C\[C@]2(O)C3=CC(=O)O[C@@H](c4ccoc4)[C@]3(C)CC[C@]2(O)[C@]2(C)C(=O)C[C@@]1(C)[C@@H]2CC(=O)OC [Compound 2, chisomicine E]

- KD [4]: no binding
SMILES: COC(=O)C[C@H]1C(C)(C)[C@H](OC(=O)C(O)C(C)C)[C@@H]2C=C3C4CC(=O)O[C@@H](c5ccoc5)[C@]4(C)CC[C@@H]3[C@@]1(C)C2=O (stereo partly drawn) [Compound 4, 3-(2′-hydroxyisovaleroyl)khasenegasin I]

- KD [4]: no binding
SMILES: CC(=O)O[C@H]1CC(=O)OC(C)(C)[C@@H]2C[C@@H](OC(C)=O)[C@@]3(C)C4=CC[C@@H](C(O)(CO)CCO)[C@]4(C)CC[C@@H]3[C@@]12C (stereo partly drawn) [Compound 7, cedrelosin F]

- KD [4]: no binding
SMILES: COC(=O)C[C@H](OC(C)=O)[C@]1(C)[C@H]2[C@@H](OC(C)=O)C[C@@]3(C)[C@H](c4ccoc4)OC(=O)[C@H]4O[C@]43[C@]2(C)[C@H](OC(C)=O)C[C@H]1C(C)(C)O [Compound 12, odoralide]

- Kd [4]: 25.5 ± 3.4 nM
SMILES: COC(=O)[C@@H](OC(C)=O)[C@H]1C(C)(C)[C@H](O)[C@@H]2CC3=C4CC(=O)O[C@@H](c5ccoc5)[C@]4(C)CC[C@@H]3[C@@]1(C)C2=O [Compound 13, 6-O-acetylswietenolide]

- KD [4]: no binding
SMILES: COC(=O)C[C@H]1C(C)(C)[C@H](O)[C@@H]2CC3=C4CC(=O)O[C@@H](c5ccoc5)[C@]4(C)CC[C@@H]3[C@@]1(C)C2=O [Compound 14, proceranolide]

- IC50 ([7]; positive control for HeLa and U937, cell line not specified, read-out: IC50 of positive control): 250 nM
SMILES: C[C@@H]1C[C@H]2O[C@@H]2/C=C\C=C\C(=O)Cc2c(Cl)c(O)cc(O)c2C(=O)O1 [radicicol, reference compound]
